Among the test systems are SR leukemia; MDA-MB-231 breast; OVCAR-3 ovarian; SW-620 colon; HOP-62 NSCLC; SK-MEL-28 melanoma; SK-MEL-2 melanoma; UO-31 renal; EKVX NSCLC; K-562 leukemia.
What all share (assay): NCI-60 cell line screen, 48 h

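Values below derive from 48-hour exposures of cells grown in 96-well plates, with endpoints linearly interpolated between the two concentrations bracketing the appropriate inhibition level. At the TGI there is no net growth.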

As to `N#CC(c1ccccc1)c1cccc2ccccc12` (stereo not drawn), the TGI is 39.4 µM with SR leukemia; more than 100 µM in the test with MDA-MB-231 breast; 86.6 µM with OVCAR-3 ovarian; more than 100 µM with SW-620 colon; more than 100 µM in the test on HOP-62 NSCLC; more than 100 µM in the test on SK-MEL-28 melanoma. In addition, the TGI was 56.2 µM in the test on SK-MEL-2 melanoma, more than 100 µM in the test with UO-31 renal, more than 100 µM in the test on EKVX NSCLC and more than 100 µM in the test with K-562 leukemia.

With `Cc1nc2c(Br)cc(Br)cc2c(=O)n1-c1ccccc1N`, the TGI with SR leukemia, in the test on MDA-MB-231 breast, in the test on OVCAR-3 ovarian, in the test on SW-620 colon, in the test on HOP-62 NSCLC and with SK-MEL-28 melanoma was more than 100 µM in each case. The TGI is 58.1 µM in the test with SK-MEL-2 melanoma, 83.8 µM in the test with UO-31 renal, more than 100 µM in the test on EKVX NSCLC and more than 100 µM in the test on K-562 leukemia.

With `O=C1CC(O)c2c(Cl)sc(Cl)c21` (stereo not drawn), the TGI with SR leukemia was 20.7 µM; with MDA-MB-231 breast, more than 61.3 µM; in the test on OVCAR-3 ovarian, 12.9 µM; with SW-620 colon it was 6.5 µM; in the test on HOP-62 NSCLC, 29.4 µM; with SK-MEL-28 melanoma it was 13.5 µM. Besides, the TGI was 31.2 µM in the test with SK-MEL-2 melanoma, 22.8 µM in the test on UO-31 renal, 37.2 µM in the test on EKVX NSCLC and more than 28.7 µM in the test with K-562 leukemia.

`C=C(Br)CN(C#N)CC(=C)Br`: the TGI in the test on SR leukemia, in the test on MDA-MB-231 breast, in the test with OVCAR-3 ovarian, with SW-620 colon, in the test on HOP-62 NSCLC and in the test on SK-MEL-28 melanoma was more than 100 µM in each case. Moreover, the TGI in the test with SK-MEL-2 melanoma, in the test with UO-31 renal, in the test on EKVX NSCLC and in the test on K-562 leukemia was more than 100 µM each time.

For `CN(C)c1ccc(/C=C2\N=C(c3ccccc3)N(c3nc4c(Cl)cc(Cl)cc4s3)C2=O)cc1`, the TGI in the test on SR leukemia, with MDA-MB-231 breast, in the test with OVCAR-3 ovarian, with SW-620 colon, in the test with HOP-62 NSCLC and in the test on SK-MEL-28 melanoma was more than 100 µM throughout. For the same molecule, the TGI with SK-MEL-2 melanoma, with UO-31 renal, in the test on EKVX NSCLC and in the test with K-562 leukemia was more than 100 µM throughout.

Consider `COC(=O)C(Cc1ccccc1)NC(=O)CNC(=O)CSc1nnc(COc2ccc(Cl)cc2)n1-c1ccccc1` (stereo not drawn), for which the TGI in the test on SR leukemia is more than 20.4 µM; in the test on MDA-MB-231 breast, 32.7 µM; with OVCAR-3 ovarian it was 30.9 µM; in the test on SW-620 colon, 47 µM; in the test with HOP-62 NSCLC, 35.3 µM; with SK-MEL-28 melanoma, 34.6 µM. The TGI was 33.8 µM with SK-MEL-2 melanoma, 3.28 µM with UO-31 renal, 39.9 µM in the test on EKVX NSCLC and more than 75.6 µM in the test with K-562 leukemia.

With `COc1ccc2c(c1)CC[C@@H]1[C@@H]2CC[C@]2(C)/C(=N/OCCN3CCCCC3)CC[C@@H]12`, the TGI in the test with SR leukemia stood at 6.29 µM; in the test with MDA-MB-231 breast, 23.6 µM; in the test with OVCAR-3 ovarian, 15 µM; with SW-620 colon, 20.3 µM; in the test with HOP-62 NSCLC it was 21 µM; in the test on SK-MEL-28 melanoma, 5 µM. The TGI was 18.7 µM in the test with SK-MEL-2 melanoma, 10.7 µM in the test with UO-31 renal, 21.5 µM in the test on EKVX NSCLC and 9.62 µM with K-562 leukemia.

As for `COc1cc(C2c3cc4c(cc3OC(N3CCOCC3)C2C)OCO4)cc(OC)c1O` (stereo not drawn), the TGI was more than 35.1 µM in the test with SR leukemia; more than 84.2 µM in the test on MDA-MB-231 breast; more than 34 µM in the test on OVCAR-3 ovarian; more than 59.6 µM in the test with SW-620 colon; 35.5 µM in the test on HOP-62 NSCLC; more than 48.6 µM in the test on SK-MEL-28 melanoma. The TGI was 46.3 µM with SK-MEL-2 melanoma, more than 66.4 µM in the test with UO-31 renal, more than 94 µM in the test on EKVX NSCLC and more than 75.5 µM in the test with K-562 leukemia.

Turning to `CC(=O)Oc1ccc2c(c1)CC[C@@H]1C2[C@@H](O[N+](=O)[O-])C[C@@]2(C)C1CC[C@@H]2O` (stereo partly drawn), the TGI was more than 88.1 µM in the test with SR leukemia; more than 100 µM with MDA-MB-231 breast; more than 86.9 µM in the test on OVCAR-3 ovarian; more than 100 µM in the test on SW-620 colon; more than 60.5 µM with HOP-62 NSCLC; more than 100 µM with SK-MEL-28 melanoma. Moreover, the TGI in the test on SK-MEL-2 melanoma is more than 100 µM; in the test with UO-31 renal it was more than 100 µM; with EKVX NSCLC, 93.6 µM; in the test with K-562 leukemia, 72.1 µM.

Turning to `Cn1c2ccccc2n2c3nc4ccccc4nc3c(C#N)c12`, the TGI in the test on SR leukemia, in the test on MDA-MB-231 breast, with OVCAR-3 ovarian, in the test with SW-620 colon, in the test with HOP-62 NSCLC and in the test with SK-MEL-28 melanoma was more than 100 µM throughout. Further, the TGI in the test with SK-MEL-2 melanoma, in the test with UO-31 renal, in the test on EKVX NSCLC and in the test with K-562 leukemia was more than 100 µM each time.

With `C=C1CCCCCCCCCCC1S(=O)c1ccccc1` (stereo not drawn), the TGI was 64.8 µM with SR leukemia; 75.3 µM with MDA-MB-231 breast; more than 100 µM in the test on OVCAR-3 ovarian; more than 100 µM with HOP-62 NSCLC; more than 100 µM in the test with SK-MEL-28 melanoma; more than 100 µM in the test on SK-MEL-2 melanoma. Besides, the TGI in the test with UO-31 renal was 39.6 µM; in the test on EKVX NSCLC it was more than 100 µM; in the test with K-562 leukemia, 82.6 µM.

In the case of `COc1cccc(-c2cc(=O)c3cc(C)cnc3[nH]2)c1`, the TGI was 95.7 µM in the test with SR leukemia; more than 100 µM in the test on MDA-MB-231 breast; more than 100 µM with OVCAR-3 ovarian; more than 100 µM in the test with SW-620 colon; more than 100 µM in the test with HOP-62 NSCLC; more than 100 µM in the test with SK-MEL-28 melanoma. Also, the TGI with SK-MEL-2 melanoma was 7.45 µM; in the test on UO-31 renal it was 3.59 µM; in the test with EKVX NSCLC, more than 100 µM; with K-562 leukemia it was more than 100 µM.

Take `Brc1ccc2c(c1)C1=C(CO2)Cc2ccccc2O1`: the TGI in the test on SR leukemia is more than 100 µM; in the test with MDA-MB-231 breast it was 30.3 µM; with OVCAR-3 ovarian, 31.8 µM; with SW-620 colon, 66.4 µM; in the test with HOP-62 NSCLC, 30.3 µM; in the test with SK-MEL-2 melanoma, 34.3 µM. Also, the TGI in the test with UO-31 renal was 30.6 µM; in the test on EKVX NSCLC, 54.9 µM; in the test on K-562 leukemia, more than 100 µM.

Take `Cc1nn(-c2ccccc2)c(C)c1/C=N/NC(=O)c1sc(=S)n(-c2ccccc2)c1N`: the TGI in the test with SR leukemia is more than 100 µM; with MDA-MB-231 breast, 7.78 µM; with OVCAR-3 ovarian it was more than 100 µM; in the test on SW-620 colon, more than 100 µM; in the test with HOP-62 NSCLC, more than 100 µM; in the test with SK-MEL-28 melanoma, 48 µM. The TGI in the test on SK-MEL-2 melanoma was more than 100 µM; in the test with UO-31 renal it was more than 100 µM; in the test on EKVX NSCLC, 8.17 µM; with K-562 leukemia, more than 100 µM.

Values taken from PubChem BioAssay (NCI).
